The nature of data set [1]: Ex vivo stability in serum. It is filed as in vitro ADME. Conditions: 30 min incubation with serum, intact peptide, data not shown.
Data set [2] has as its system phospho-AMP kinase (Thr172). Description: AMPK phosphorylation in normal fibroblasts (immunofluorescence). Format: cell-based, human. The note with it: ADP355 60 min, confocal immunofluorescence.
The test system of the next data set is skin fibroblasts. Description: In vitro competition binding with labeled peptides. Details: species or system human. The note with it: unlabeled ADP355 100 μg/ml 10 min, then ADP355-Dy675 5 μg/ml 30 min, confocal microscopy. As to the method:
To evaluate in vitro peptide binding, skin fibroblasts seeded on coverslips were preincubated with unlabeled ADP355 (100 μg/ml) for 10 min, followed by labeled ADP355-Dy675 (5 μg/ml), or labeled control peptide (Api88 Dy675, gift from Daniel Knappe, Leipzig, Germany) for 30 min. Cells were fixed in 4% phosphate buffered paraformaldehyde (PFA) and visualized using a Nikon A1 confocal microscope. To evaluate in vivo biodistribution, C57BL6/J mice were injected i.p. with Dy675-coupled peptide (20 μg/mouse or […]) and 10 min later, dorsal skin was harvested and processed for immunofluorescence analysis.

The conditions of data set [3]: cited from earlier work. An excerpt: (§1) An alternate potential strategy is to mimic adiponectin biological activity using small molecules.
For another data set, the system named is AdipoR. Conditions: screening of 66 overlapping 10-amino acid peptides of the globular domain of adiponectin; cited from earlier work.
Excerpt: as §1

In data set [4] the test system is AdipoR-positive cancer cell lines. The note with it: cited from earlier work.
Excerpt: as §1

Another data set deals with C57BL6/J mice. The data set can be described thus: Bleomycin-induced skin fibrosis in mice. Format: in vivo, mouse. An excerpt: Bleomycin (BLM) or phosphate buffered saline (PBS) was given by daily subcutaneous (s.c.) injection for 14 consecutive days[55]. In some experiments, mice were given a single s.c. injection of adenovirus expressing constitutively-active TGF-ß1 (TGFß1^223/225 3x10^9 PFU/ml) or beta-galactosidase (5x10^9 PFU/ml)[56]. Peritoneal fibrosis was induced by i.p. injections of 0.1% chlorhexidine gluconate (CG; Wako Pure Chemical Industries, Osaka, Japan) dissolved in 15% ethanol/PBS given on alternate days for 21 days[35]. Synthetic peptides targeting AdipoR (ADP355 or ADP27)[37] or vehicle (PBS) at the indicated concentrations were administered by daily i.p. injection for 14 or 24 days. Each experimental group consisted of 4–8 mice, and experiments were repeated at least two times with consistent results. At the end of the experiments, mice were sacrificed and blood and tissue were collected for analysis.
Harvested skin or parietal peritoneal membrane samples were fixed in PFA, embedded in paraffin and 4 μm thick sections were stained with hematoxylin and eosin (H&E). Collagen deposition and organization were assessed using Masson’s Trichrome staining. Thickness of the dermis, dWAT or peritoneal membrane were determined at five randomly selected locations/slide using ImageJ software.
Collagen content of lesional skin was determined by measuring the hydroxyproline content in 6-mm punch biopsy samples (BioVision, Milpitas, CA) (16). Serum levels of adiponectin were determined by ELISA which measures all adiponectin isoforms (Millipore; #EZMADP-60K)[9].
(§2) RNA was isolated from skin samples using RNAeasy Fibrous Tissue Mini kit (Qiagen, Valencia, CA), or from fibroblast cultures, using the RNeasy Plus mini kit (Qiagen), and processed for qPCR as described. mRNA levels were normalized to the levels of 18 S RNA or GAPDH, and the relative amounts were calculated using the 2^−ΔΔCt method.

For data set [5], the system named is 3D human skin equivalents populated with normal skin fibroblasts. The data set can be described thus: 3D human skin equivalents, fibrotic responses (qPCR). It is filed as cell-based. Conditions: peptide 10 uM with TGF-β2 for 6 days. As to the method:
Normal human skin fibroblasts (3 × 10^5cells) were mixed with rat tail Type I collagen (4 mg/ml, BD Biosciences, San Jose, CA) and seeded in 12-well plates, [60]. Epidermal keratinocytes (6 × 10^6 cells) were seeded on the collagen plugs. Forty-eight hours later, the 3D organotypic cultures were placed on metal grids (BD Biosciences) and maintained for 5 days at an air-medium interface. Peptides (10 uM) were then added in media with or without TGF-β, and incubations continued for a further six days. Experiments were harvested, and RNA was isolated for analysis.
as §2
A general note: In qPCR the cycle at which signal appears reflects the starting amount.

The subject of a further data set is p-FAK Y397. Description: FAK phosphorylation and focal adhesion complex assembly. Format: cell-based, human. Conditions: normal skin fibroblasts, pretreatment with ADP355. As to the method: Normal skin fibroblasts (10,000 cells/well) seeded in 8-well Lab-Tek II chamber glass slides (Nalge Nunc International, Naperville, IL) were incubated in media with indicated reagents. At the end of the experiments, cells were fixed, permeabilized, and incubated with primary antibodies to α-SMA (1:500, Sigma), phospho-FAK (pY397; 1:50, Abcam), vinculin (1:200, Abcam), Alexa Fluor 488 phalloidin (1:200, Invitrogen) or Type I collagen (1:100, Southern Biotech), followed by appropriate secondary antibodies conjugated to Alexa Fluor (Invitrogen), and evaluated under a Nikon C1Si confocal microscope.
(§3) At the end of the experiments, fibroblasts were harvested and whole cell lysates (100 μg) were subjected to Western-blot analysis[25] using antibodies for Type I collagen (Southern Biotech), α-SMA (Sigma), phospho-Smad2/3 (Cell-Signaling), phospho-FAK (pY397, Cell Signaling), total-FAK (Cell Signaling) or GAPDH (Zymed, San Francisco, CA). Electrophoretic bands were detected using enhanced chemiluminescence reagents (Pierce Biotechnology, Rockford, IL), and band intensities were quantified with Image J software. Results were normalized with GAPDH levels in each sample.

Data set [6] has as its system [SBE]4-luc (canonical Smad pathway). The data set can be described thus: [SBE]4-luc transient transfection reporter assay. Format: cell-based, human. The note with it: transiently transfected fibroblasts, ADP355 and TGF-β 24 h, luciferase. As to the method:
Fibroblasts at early confluence were transfected with [SBE]4-luc plasmids or indicated reporter constructs using SuperFect Transfection (Qiagen)[61]. Cultures were incubated in serum-free media containing 0.1% BSA for 16 h, followed by ADP355 and TGF-β for a further 24 h[61]. Whole cell lysates were assayed for luciferase activities using the dual-luciferase reporter assay system (Promega, Madison, WI). In each experiment, Renilla luciferase pRL-TK (Promega) was cotransfected as control for transfection efficiency. Experiments were performed in triplicate and repeated at least twice with consistent results. For RNAi-mediated transcript silencing, fibroblasts were transfected with target-specific short interfering siRNA specific for AdipoR1/R2 (Dharmacon, Lafayette, CO) or scrambled control siRNA (10 nM, unless otherwise indicated). Twenty-four hours following transfection, fresh media containing TGF-β (2 ng/ml) or ADP355 (10 μM) were added to the cultures and incubation continued for a further 24 h.

A further data set relates to phospho-Smad2/3. The data set can be described thus: Smad2/3 phosphorylation elicited by TGF-ß (Western). Format: cell-based, human. The note with it: fibroblasts treated with ADP355. The protocol:
as §3

Where [7] appears, read: daily i.p. ADP355 initiated concurrently with BLM.

Residues, ends and D or L forms follow the SMILES beside them.

For the molecule `CCC[C@H](NC(=O)[C@@H]1CCCN1C(=O)[C@@H](NC(=O)[C@H](N)CC(N)=O)[C@@H](C)CC)C(=O)N[C@@H](CC(C)C)C(=O)N[C@@H](Cc1ccc(O)cc1)C(=O)N[C@H](CO)C(=O)N[C@@H](Cc1ccccc1)C(=O)N[C@@H](C)C(=O)N[C@H](CO)C(N)=O` [ADP355, H-DAsn-Ile-Pro-Nva-Leu-Tyr-DSer-Phe-Ala-DSer-NH2] (HELM PEPTIDE1{[dN].I.P.[Nva].L.Y.[dS].F.A.[dS].[am]}$$$$V2.0), the “ex vivo stability in serum” value in [1] is “excellent ex vivo stability, with detectable levels of intact peptide even after 30 min incubation with serum”. Moreover, the AMPK phosphorylation entry in data set [2] was “induced AMPK phosphorylation”. Moreover, the binding to fibroblasts result in the data set with skin fibroblasts was “Specific binding”. Also, the “hypoadiponectinemia and loss of subcutaneous adipose tissue induced by HIV protease inhibitors” value in data set [3] is recorded as “reverse”. In the data set with AdipoR, the AdipoR agonist activity result is given as “potent AdipoR agonist”. Moreover, in [4], the anti-tumor effects entry is recorded as “anti-tumor effects”. For the same molecule, the “skin fibrosis, low dose” value in the data set with C57BL6/J mice (0.2 mg/kg/d, multiple independent experiments) was “Significant attenuation”. In addition, the “skin fibrosis, high dose” value in the data set on C57BL6/J mice (1 mg/kg/d, multiple independent experiments) is “Significant attenuation”. Further, the “dermal thickness, peptide by itself” value in the data set on C57BL6/J mice (ADP355 alone, without BLM) is reported as “no significant effect”. For the same molecule, in the data set on C57BL6/J mice (setting [7]), the BLM-induced collagen accumulation entry was “significantly mitigated” and the “BLM-induced dWAT attrition” value is given as “significantly mitigated”. Further, in the data set on C57BL6/J mice (daily i.p. ADP355 initiated concurrently with BLM (s.c. 14 d), continued for 21 d), the “BLM-induced increase in dermal thickness” value was “significantly mitigated”. The “BLM-induced fibrotic gene expression” value in the data set on C57BL6/J mice (daily i.p. ADP355 initiated concurrently with BLM, qPCR of lesional skin) is listed as “significantly mitigated”. Moreover, in the data set with C57BL6/J mice (treatment initiated at day 10 of BLM, data not shown), the established dermal fibrosis entry is “reversed established dermal fibrosis”. Further, the “fibrotic responses in 3D human skin equivalents” value in data set [5] is “attenuated fibrotic responses”. In addition, in the data set with p-FAK Y397, the “FAK activation and focal adhesion complex assembly augmented by TGF-ß” value was “substantially attenuated”. Further, in data set [6], the “stimulation of [SBE]4-luc activity by TGF-ß” value is “abrogated”. For the same molecule, the “Smad2/3 phosphorylation elicited by TGF-ß” value with phospho-Smad2/3 is recorded as “partially reduced”.

Source of the values: publication PMC5493638, “Adiponectin is an endogenous anti-fibrotic mediator and therapeutic target” (Scientific Reports, 2017).
